Data on 3 compounds can be found in paper PMC9954107, “In Vitro and Predictive Computational Toxicology Methods for the Neurotoxic Pesticide Amitraz and Its Metabolites” (Brain Sciences, 2023).

Molecules are shown by their SMILES. Where only a bound is given, the exact number is not on record here.

Series [1] deals with HepG2 cells. Description: MTT cytotoxicity assay. Format: cell-based. As to conditions: Homo sapiens, read-out: IC50 (µM) ± SEM. The protocol: Human hepatocarcinoma (HepG2) (ATCC: HB-8065) cells were cultured in DMEM medium supplemented with 10% NBCS, 100 U/mL penicillin, and […] streptomycin. The incubation conditions were pH 7.4, 5% CO2 at 37 °C, and 95% air atmosphere at constant humidity. The medium was changed every 5 days. The final pesticide concentrations tested were achieved by adding each pesticide solution to the culture medium with a final MeOH or DMSO concentration ≤ 1% (v/v). Appropriate controls containing the same amounts of solvents were included in each experiment. Absence of mycoplasma was checked routinely using the MycoAlert^TM PLUS Mycoplasma Kit (Lonza, Rockland, ME, USA).
Cytotoxic effects were determined in HepG2 cells by the MTT and total protein content (PC) assays. They have been extensively used in in vitro toxicological studies for measuring cell proliferation and survival. The MTT assay determines the viability of cells by the reduction of yellow soluble tetrazolium salt (MTT), only in the metabolically active cells, via a mitochondrial-dependent reaction to an insoluble purple formazan crystal. The MTT viability assay was performed according to Ruiz et al. (2006). To begin, 2 × 10^4 cell/well were plated in 96-well tissue culture plates. After cells reached 80% confluence, the culture medium was replaced with fresh medium containing serial dilutions of each pesticide (amitraz from […], 2,4-DMF from 93.75 to 1500 µM, and 2,4-DMA from 93.75 to 1500 µM). The pesticides were exposed at 24, 48, and 72 h. During the exposure time, neither the medium nor the pesticides was replenished. After the exposure time, the medium was removed and 200 μL of fresh medium was added to each well. Then we added 50 μL/well of MTT and the plates were returned to the incubator in the darkness. After 3 h of incubation, the MTT solution was removed and 200 μL of DMSO was added, followed by 25 μL Sorensen’s glycine buffer. Plates were gently shaken for 5 min to achieve the complete dissolution. The absorbance was measured at 540 nm using an automatic ELISA plate reader (MultiSkanEX, Thermo Scientific, Waltham, MA, USA).
(§1) For MTT and PC assays, cell viability was expressed as a percentage relative to the control solvent (≤1% MeOH or DMSO). Three independent experiments were conducted for each exposure time and at least in quadruplicate per concentration. The mean inhibition concentration (IC50) values were calculated using SigmaPlot version 11 (Systat Software Inc., GmbH, Germany).
In general terms: Tetrazolium assays rely on reduction of a dye to a coloured formazan, in cell work by metabolically active cells.

Series [2] concerns HepG2 cells. The series can be described thus: Total protein content (PC) cytotoxicity assay. It is filed as cell-based, human. As to conditions: for IC50: Homo sapiens, read-out: IC50 (µM) ± SEM; for decrease in cell viability: 72 h.
Text: The medium was changed every 5 days. The final pesticide concentrations tested were achieved by adding each pesticide solution to the culture medium with a final MeOH or DMSO concentration ≤ 1% (v/v). Appropriate controls containing the same amounts of solvents were included in each experiment. Absence of mycoplasma was checked routinely using the MycoAlert^TM PLUS Mycoplasma Kit (Lonza, Rockland, ME, USA).
The PC method is based on the increase of absorbance of Coomassie Brilliant Blue dye when binding to proteins. The assay was performed in the same 96-well plates where the MTT test was carried out. First, the plates were washed with PBS and each well received 200 μL of NaOH 0.1 N to dissolve the proteins. […] The plates remained for 30 min at room temperature and the absorbance was measured at 620 nm in an automatic ELISA plate reader (MultiSkanEX, Thermo Scientific, MA, USA).
as §1

The subject of series [3] is primary hippocampal cells. The following applies: MTT, 24 h, cited from earlier work.
For series [4], the system named is human lymphoblastoid (WIL2NS) cell line. Also on record: method as in PMID 16125362. As to conditions: from 0.119 to 119 µM, 24, 48, and 72 h; lowest concentration 0.119 µM; cited from earlier work.
Setting [5] is: PC, HepG2, 24 h, mean ± SEM (n = 3).
The mark [6] stands for this setting: PC, HepG2, 48 h, mean ± SEM (n = 3).
[7] abbreviates: PC, HepG2, 72 h, mean ± SEM (n = 3).

The term IC50 denotes the concentration at which inhibition is half-maximal. As for `Cc1ccc(N)c(C)c1` [2,4-DMA, 2,4-dimethylaniline], the IC50 in series [1] (HepG2, 24 h) is more than 1500 µM; in series [1] (HepG2, 48 h), more than 1500 µM; in series [1] (HepG2, 72 h), more than 1500 µM; in series [2] (setting [5]), more than 1500 µM; in series [2] (setting [6]), more than 1500 µM; in series [2] (setting [7]), more than 1500 µM. In addition, the “cell viability decreased to” value in series [2] (PC, HepG2, 1500 µM, 24 h) turned out to be 53%.
For `Cc1ccc(NC=O)c(C)c1` [2,4-DMF, N-(2,4-dimethylphenyl) formamide], the IC50 is more than 1500 µM in series [1] (HepG2, 24 h); more than 1500 µM in series [1] (HepG2, 48 h); more than 1500 µM in series [1] (HepG2, 72 h); more than 1500 µM in series [2] (HepG2, 24 h); more than 1500 µM in series [2] (HepG2, 48 h); more than 1500 µM in series [2] (HepG2, 72 h). The “decrease in cell viability” value in series [2] (PC, HepG2, 1250 µM) was determined as 27%; in series [2] (PC, HepG2, 1500 µM), 32%.
`Cc1ccc(/N=C/N(C)/C=N/c2ccc(C)cc2C)c(C)c1` [Amitraz, N,N’-[(methylimino)dimethylidyne]di-2,4-xylidine]: the IC50 worked out at 196 ± 10.1 µM in series [1] (HepG2, 24 h); 176 ± 5 µM in series [1] (HepG2, 48 h); 157 ± 10.1 µM in series [1] (HepG2, 72 h); 260 ± 13.3 µM in series [2] (setting [5]); 213 ± 37.5 µM in series [2] (setting [6]); 175 ± 2.9 µM in series [2] (setting [7]). Further, in series [3] (100 µM), the metabolic activity entry is “decrease in metabolic activity”. For the same compound, the “cytotoxic effect (cell viability)” value in series [3] (from 60 to 120 µM, effect up to 100 µM) is given as “decreased the cell viability in a concentration-dependent manner”. The “reduction of cell viability” value in series [2] (PC, HepG2, from 187.5 μM, three times of exposure) is recorded as 24–100%. Further, the “cytotoxicity (cell viability)” value in series [4] is “significant decrease in cell viability for all concentrations tested, except for the lowest concentration assayed”.
